Results taken from the supplement of paper PMC3974653.
Counter-ions that a name gives are not always drawn.

Tested on: MTT (mouse pheochromocytoma)
Experiment: IC50 of cell viability (ATP content)
Conditions: (24 or 48 h)
Outline: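 Each well of a white 1536-well plate received 5 µl of MTT mouse pheochromocytoma cells at 200,000 cells/ml in DMEM containing 5% FBS and 1% horse serum. After overnight culture at 37°C, 5% CO2, cells were exposed for 24 or 48 hrs to 23 nl of library compound in DMSO, pinned at 8 final concentrations from 0.5 nM to 46 µM. CellTiter-Glo luminescence was read after 15 minutes, and IC50 was obtained from a four-parameter logistic fit of signals normalised to positive-control and DMSO wells.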

| IC50 of cell viability | Compound |
| --- | --- |
| > 46 µM | C/C(=N\O)c1ccc(OCC(=O)N2CCCCC2)cc1 [Pifoxime] |
| > 46 µM | CC(=O)O[C@H]1C[C@@H]2CC[C@@H]3[C@H](CC[C@]4(C)[C@H](OC(C)=O)[C@@H](N5CC[N+](C)(C)CC5)C[C@@H]34)[C@@]2(C)C[C@@H]1N1CC[N+](C)(C)CC1 [Pipecuronium] |
| > 46 µM | CCN1\C=C(\C(O)=O)C(=O)C2=C1N=C(N=C2)N3CCNCC3 [Pipemidic acid] |
| > 46 µM | [Na+].CCN1CCN(C(=O)N[C@H](C(=O)N[C@H]2[C@@H]3SC(C)(C)[C@@H]([N@]3C2=O)C([O-])=O)C4=CC=CC=C4)C(=O)C1=O [Piperacillin sodium salt] |
| > 46 µM | C1CNCCN1 [Piperazine] |
| > 46 µM | CCN1CCC[C@H](OC(=O)C(c2ccccc2)c2ccccc2)C1 [Piperidolate hydrochloride] |
| > 46 µM | CN1CCN(c2cc3c(nn2)Oc2ccccc2N3C)CC1 [Pipofezine] |
| > 46 µM | CCCCCCCCCCCCCCCC(=O)OCCC1CCN(CCCN2c3ccccc3Sc3ccc([S+](=O)([O-])N(C)C)cc32)CC1 [Pipothiazine palmitate] |
| > 46 µM | N[S+](=O)([O-])c1cc(C(=O)O)cc(N2CCCC2)c1Oc1ccccc1 [Piretanide] |
| > 46 µM | CC/1=C/N(C(=O)/C=C1)C2=CC=CC=C2 [Pirfenidone] |
| > 46 µM | CCN1\C=C(\C(O)=O)C(=O)C2=C1N=C(N=C2)N3CCCC3 [Piromidic acid] |
| > 46 µM | CN1\C(=C(\O)C2=C(C=CC=C2)[S+]1([O-])=O)C(=O)NC3=CC=CC=N3 [Piroxicam] |
| > 46 µM | O=C(O)CC(O)CC(O)/C=C/c1c(C2CC2)nc2ccccc2c1-c1ccc(F)cc1 (stereo unspecified) [Pitavastatin] |
| > 46 µM | COC(=O)c1ccccc1C(=O)c1ccc(OCCN2CCCCC2)cc1 [Pitofenona] |
| > 46 µM | CC(C)(C)C(=O)NCCCC(=O)O [Pivagabine] |
| > 46 µM | CC(C)(C)C(=O)OCOC(=O)[C@@H]1[N@]2[C@@H](SC1(C)C)[C@H](NC(=O)[C@@H](N)C3=CC=CC=C3)C2=O [Pivampicillin] |
| > 46 µM | CC(C)(C)C(=O)OCOC(=O)[C@@H]1[N@]2[C@@H](SC1(C)C)[C@H](\N=C/N3CCCCCC3)C2=O [Pivmecillinam hydrochloride] |
| > 46 µM | CC(C)(C)C(=O)OCOC(=O)C1N2C(=O)CC2[S+](=O)([O-])C1(C)C (stereo unspecified) [Pivoxil Sulbactam] |
| > 46 µM | C=C[C@]1(C)C[C@@H](OC(=O)CO)[C@]2(C)C(C)CC[C@]3(CCC(=O)[C@H]32)[C@@H](C)[C@@H]1O (stereo partly specified) [Pleuromutilin] |
| > 46 µM | NCCCC(N)C(=O)O [Poly-L-ornithine hydrochloride] |

| IC50 of cell viability | Compound |
| --- | --- |
| > 46 µM | CCC(C)CCCCC(=O)N[C@@H](CC[NH3+])C(=O)N[C@H](C(=O)N[C@@H](CC[NH3+])C(=O)N[C@H]1CCNC(=O)C([C@@H](C)O)NC(=O)[C@@H](CCN)NC(=O)[C@H](CCN)NC(=O)[C@H](CC(C)C)NC(=O)[C@@H](CC(C)C)NC(=O)[C@H](CCN)NC1=O)[C@@H](C)O (stereo partly specified) [Polymyxin E1] |
| > 46 µM | CN1C(CSCC(F)(F)F)Nc2cc(Cl)c([S+](N)(=O)[O-])cc2[S+]1(=O)[O-] (stereo unspecified) [Polythiazide] |
| > 46 µM | CC[C@@H]([C@H](C)O)N1\N=C/N(C1=O)C2=CC=C(C=C2)N3CCN(CC3)C4=CC=C(OCC5CO[C@@](C5)(C[N]6C=NC=N6)C7=C(F)C=C(F)C=C7)C=C4 (stereo partly specified) [Posaconazole] |
| > 46 µM | C#CC[C@H](Cc1cnc2nc(N)nc(N)c2n1)c1ccc(C(=O)NC(CCC(=O)O)C(=O)O)cc1 (stereo partly specified) [Pralatrexate] |
| > 46 µM | C[n+]1ccccc1/C=N\O [Pralidoxime chloride] |
| > 46 µM | CCCCOc1ccc(OCCCN2CCOCC2)cc1 [Pramoxine hydrochloride] |
| > 46 µM | CC(=O)Oc1cc2c(s1)CCN(C(C(=O)C1CC1)c1ccccc1F)C2 (stereo unspecified) [Prasugrel Hydrochloride] |
| > 46 µM | O=C(C1CCCCC1)N1CC(=O)N2CCc3ccccc3[C@@H]2C1 [Praziquantel] |
| > 46 µM | COc1cc2nc(N3CCN(C(=O)c4ccco4)CC3)nc(N)c2cc1OC [Prazosin] |
| > 46 µM | CCOC(=O)O[C@@]1(CC[C@@H]2[C@@H]3CC\C4=C\C(=O)\C=C/[C@@]4(C)[C@H]3[C@H](O)C[C@@]12C)C(=O)COC(=O)CC [Prednicarbate] |
| > 46 µM | CC12C=CC(=O)C=C1CCC1C2C(O)CC2(C)C1CCC2(O)C(=O)COC(=O)CCC(=O)O (stereo unspecified) [Prednisolone 21-hemisuccinate] |
| > 46 µM | C[C@]12CC(=O)[C@H]3[C@@H](CC\C4=C\C(=O)\C=C/[C@]34C)[C@@H]1CC[C@]2(O)C(=O)CO [Prednisone] |
| > 46 µM | CC(O)C1CCC2C3CCC4CC(O)CCC4(C)C3CCC12C (stereo unspecified) [Pregnandiol] |
| > 46 µM | CC(=O)[C@H]1CC[C@H]2C3CC=C4C[C@@H](O)CC[C@]4(C)C3CC[C@]12C (stereo partly specified) [Pregnenolona] |
| > 46 µM | CCCN[C@@H](C)C(=O)Nc1ccccc1C [Prilocaine hydrochloride] |
| > 46 µM | COc1cc(N[C@@H](C)CCCN)c2ncccc2c1 [Primaquine diphosphate] |
| > 46 µM | CCCN(CCC)[S+](=O)([O-])c1ccc(C(=O)O)cc1 [Probenecid] |
| > 46 µM | CC(C)(Sc1cc(C(C)(C)C)c(O)c(C(C)(C)C)c1)Sc1cc(C(C)(C)C)c(O)c(C(C)(C)C)c1 [Probucol] |
| > 46 µM | CCN(CC)CCOC(=O)c1ccc(N)cc1 [Procaine hydrochloride] |
| > 46 µM | CNNCc1ccc(C(=O)NC(C)C)cc1 [Procarbazine hydrochloride] |

| IC50 of cell viability | Compound |
| --- | --- |
| > 46 µM | CN1CCN(CCCN2c3ccccc3Sc3ccc(Cl)cc32)CC1 [Prochlorperazine dimaleate] |
| > 46 µM | O[C@@](CCN1CCCC1)(c1ccccc1)C1CCCCC1 [Procyclidine hydrochloride] |
| > 46 µM | CC(=O)C1CCC2C3CC\C4=C\C(=O)CCC4(C)C3CCC12C (stereo unspecified) [Progestin] |
| > 46 µM | CCCN(CCC)C(=O)C(CCC(=O)OCCCN1CCN(CCOC(=O)Cc2c(C)n(C(=O)c3ccc(Cl)cc3)c3ccc(OC)cc23)CC1)NC(=O)c1ccccc1 (stereo unspecified) [Proglumetacin maleate] |
| > 46 µM | CCCN(CCC)C(=O)[C@@H](CCC(=O)O)NC(=O)c1ccccc1 [Proglumide] |
| > 46 µM | CN(C)CCCN1c2ccccc2Sc2ccccc21 [Promazine hydrochloride] |
| > 46 µM | N=C(N)c1ccc(OCCCOc2ccc(C(=N)N)cc2)cc1 [Propamidine] |
| > 46 µM | CCCOc1ccc(C(=O)OCCN(CC)CC)cc1N [Proparacaine hydrochloride] |
| > 46 µM | CCC(Oc1ccccc1)C(=O)NC1C(=O)N2C1SC(C)(C)C2C(=O)[O-] (stereo unspecified) [Propicillin] |
| > 46 µM | CCC(=O)[O-] [Propionic acid] |
| > 46 µM | CCCOc1cc(N)ccc1C(=O)OCCN(CC)CC [Propoxycaine hydrochloride] |
| > 46 µM | CCCOC(=O)c1cc(O)c(O)c(O)c1 [Propyl gallate] |
| > 46 µM | CCCOC(=O)c1ccc(O)cc1 [Propyl-4-hydroxybenzoate] |
| > 46 µM | CCCOC(=O)c1ccc(O)cc1 [Propylparaben] |
| > 46 µM | CNCCCC1C2=C(C=CC=C2)\C=C/C3=C1C=CC=C3 [Protriptyline hydrochloride] |
| > 46 µM | CC[C@H](c1ccccc1)c1noc(CCN(CC)CC)n1 [Proxazole citrate] |
| > 46 µM | C[C@H](O)Cn1cnc2c1c(=O)n(C)c(=O)n2C [Proxyphylline] |
| > 46 µM | Cc1oc(=O)oc1CN1CCN(c2cc3c(cc2F)c(=O)c(C(=O)O)c2n3C(C)S2)CC1 (stereo unspecified) [Prulifloxacin] |

| Compound | IC50 of cell viability |
| --- | --- |
| O=C1CCCCC1CN1CCCCC1 (stereo unspecified) [Pimeclone] | > 46 µM |
| CCCCOCCOCCOCc1cc2c(cc1CCC)OCO2 [Piperonyl butoxide] | > 46 µM |
| NC(=O)CN1CCCC1=O [Piracetam] | > 46 µM |
| O=S(=O)([O-])C(F)(F)C(F)(F)C(F)(F)C(F)(F)F [Potassium nonafluoro-1-butanesulfonate] | > 46 µM |
| O=C(N[C@@H]1N=C(c2ccccc2F)c2cccc3c2N(CC3)C1=O)c1cc2ccccc2[nH]1 [Pranazepide] | > 46 µM |
| C[C@]12CC[C@H]3[C@@H](C\C=C/4C[C@@H](O)CC[C@]34C)[C@@H]1CCC2=O [Prasterona] | > 46 µM |
| COc1ccc(C(=O)c2c(C)n(CCN3CCOCC3)c3ccccc23)cc1 [Pravadoline maleate] | > 46 µM |
| C[C@@H](Cc1ccccc1)NCCC(c1ccccc1)c1ccccc1.C[C@H](O)C(=O)O [Prenylamine lactate] | > 46 µM |
| CCCOC(=O)Cc1ccc(OCC(=O)N(CC)CC)c(OC)c1 [Propanidid] | > 46 µM |
| CNC(C)CC1CCCCC1 (stereo unspecified) [Propylhexadrine] | > 46 µM |
| C[C@@H]1O[C@@H](O[C@H]\2CC[C@]\3(C)[C@@H]4CC[C@]5(C)[C@@H](CC[C@@]5(O)[C@H]4CCC3=C2)C/6=C/OC(=O)/C=C6)[C@H](O)[C@H](O)[C@@H]1O [Proscillaridin A] | > 46 µM |
| C[N+]1(C)[C@@H]2C[C@H](OC(=O)[C@@H](CO)c3ccccc3)C[C@@H]1[C@H]1O[C@H]12 [Proscomide] | > 46 µM |
| CN(C)CCc1c[nH]c2cccc(O)c12 [Psilocin] | > 46 µM |
